The values below come from patent US7371555B2, “Polypeptides having α-H-α-amino acid amide racemase activity and nucleic acids encoding the same” (DSM IP Assets B.V., priority 2002, dated 2008).

Experiment [1] deals with α-H-α-amino acid amide racemase from Ochrobactrum anthropi IA. The experiment is described as follows: Substrate specificity, CFE from E. coli TOP10/pKEC_AZAR_3 (Example 7). The experiment is classed as biochemical. The settings on record: relative to the activity towards D-leucine amide; 75 mM substrate, 20 mM EDTA, pH 8.0, 37° C. How it is done:
Two pre-cultures of E. coli TOP10/pKEC_AZAR—3 (see Example 4) were prepared by inoculation of 2 erlenmeyer flasks with 100 ml of 2*TY medium (10 g/l Yeast extract, 16 g/l Tryptone, 5 g/l NaCl) containing 50 mg/l of kanamycin with 10 μl of a glycerol stock per flask. After overnight cultivation at 28° C. and 200 rpm, the pre-cultures were pooled, and subsequently used to inoculate 2 erlenmeyer flasks each containing 1 l of the same medium. Also these flasks were cultivated at 28° C. and 200 rpm for 16-18 h. Cells were harvested by centrifugation (15 min. at 6,200×g, 4° C.), washed with 20 mM HEPES-NaOH, pH 7.5, pooled, weighed, and resuspended in a solution containing 20 mM HEPES-NaOH, pH 7.5, 20 μM pyridoxal-5-phosphate, and 1.3 mM of dithiothreitol in a 1:3 ratio of wet weight cells to solution. Then, cells were disintegrated by 10 min. sonification with a Soniprep 150 of MSE operated at maximum amplitude using time intervals of 10 sec. (i.e., 10 sec. sonification, 10 sec. cooling) and cooling in ice/acetone. Particles were removed by centrifugation, after which sucrose was added to the cell free extract to a final concentration of 0.25 M. The resulting cell free extract (CFE) was stored in aliquots at −20° C. E. coli TOP10/pBAD/Myc-HisC (Invitrogen) cells were treated in exactly the same way and served as negative control.
The substrate specificity of the α-H-α-amino acid racemase from O. anthropi IA was determined by measuring the racemase activity of the above-mentioned CFE towards a number of enantiomerically pure amino acid amides. Each reaction mixture of 10 ml (including the CFE) contained 50 mM HEPES-NaOH, pH 8.0, 20 μM pyridoxal-5-phosphate, 0.4 mg/ml BSA, 1 mM dithiothreitol, 20 mM EDTA and 75 mM of one of the amino acid amides tested. Reactions were started by the addition of 1 ml of the thawed CFE of E. coli TOP10/pKEC_AZAR—3 or E. coli TOP10/pBAD/Myc-HisC (blank) and were incubated at 37° C. At regular time intervals samples of 1 ml were taken and transferred to vials containing 1 ml of 1M H3PO4 to stop the reaction. After sufficient dilution of the samples in 0.4 M borate buffer pH 9.4, the mixtures obtained were analyzed using HPLC to determine the exact concentrations of the two amino acid and two amino acid amide enantiomers according to the following method.
The initial activity for the different substrates tested was calculated from the linear parts of the progress curves, in which the conversion was plotted against the reaction time. Use of the linear part of the progress curves secured that only samples taken at time points at which the substrate concentration was still sufficiently high, were used for the calculations. The conversion was calculated by dividing the amount of amino acid and amino acid amide formed via the racemase reaction (so with the opposite stereochemistry compared to the substrate molecule) by the total amount of two amino acid enantiomers and the two amino acid amide enantiomers.

Experiment [2] deals with partially purified α-H-α-amino acid amide racemase from O. anthropi IA. The experiment is described as follows: Substrate specificity of the partially purified racemase (Example 8). Format: biochemical, Ochrobactrum anthropi IA. Also noted: tested at 75 mM. As to conditions: relative to the activity towards L-leucine amide; pH 8.0, 37° C. The method, then:
The substrate specificity of the O. anthropi IA α-H-α-amino acid amide racemase was determined using the partially purified enzyme preparation obtained by the protocol described above. Reaction mixtures of 1 ml total volume were prepared by mixing 772 μl of 66.6 mM HEPES-NaOH, pH 8.0, 10 μl of 0.1 M dithiothreitol, 18 μl of a solution containing 20 mg/ml BSA and 1 mM pyridoxal-5-phosphate, and 100 μl of a 0.75 M substrate solution, pH 8.0. After equilibration for 5 minutes at 37° C., the reactions were started by the addition of 100 μl of the enzyme solution. Reaction mixtures were incubated at 37° C. without shaking. After regular time intervals, samples of 50 μl were taken and transferred into vials containing 950 μl of 1 M H3PO4 to stop the reaction. After sufficient dilution of the samples in 0.4 M borate buffer pH 9.4, the mixtures obtained were analyzed using HPLC to determine the exact concentrations of two amino acid amide enantiomers according to the method of Example 7.
Initial activity for the different substrates tested was calculated from the linear parts of the progress curves, in which the amount of the amino acid amide enantiomer formed (so with a stereochemistry opposite to the substrate molecule) was plotted against the reaction time.

Experiment [3] deals with α-H-α-amino acid amide racemase from Arthrobacter nicotianae NCIMB 41126. In words: Substrate specificity, CFE from E. coli DH10B/pAn(1)PLV36D06 (Example 9). Format: biochemical. The settings on record: relative to the activity towards D-leucine amide; 75 mM substrate, pH 8.0, 37° C. How it is done:
Preparation of the CFE of E. coli DH10B/pAn(1)PLV36D06 was performed as described in Example 7 for E. coli TOP10/pKEC_AZAR—3
Before applying the CFE from E. coli DH10B/pAn(1)PLV36D06 in the reactions with different enantiomerically pure α-H-α-amino acid amides to determine the substrate specificity of the A. nicotianae α-H-α-amino acid amide racemase, the E. coli amidases/aminopeptidases in this CFE were inhibited by a pre-treatment with an inhibitor cocktail. One tablet of Complete Mini Protease Inhibitor Cocktail (Roche Applied Science, Mannheim, Germany) was dissolved in 9 ml of the CFE followed by an incubation of 1 hour at room temperature. Next, reaction mixtures of 10 ml each (including the CFE) were prepared containing 50 mM HEPES-NaOH, pH 8.0, 20 μM pyridoxal-5-phosphate, 0.4 mg/ml BSA, 1 mM dithiothreitol and 75 mM of one of the amino acid amides tested. Reactions were started by the addition of 1 ml of the pre-treated CFE of E. coli DH10B/pAn(1)PLV36D06 or E. coli TOP10/pBAD/Myc-HisC (blank) and were incubated at 37° C. At regular time intervals samples of 1 ml were taken and transferred to vials containing 1 ml of 1M H3PO4 to stop the reaction. After sufficient dilution of the samples in 0.4 M borate buffer pH 9.4, the mixtures obtained were analyzed using HPLC to determine the exact concentrations of the two amino acid and two amino acid amide enantiomers according to the method of Example 7.

Experiment [4] has as its system E. coli clones with plasmid encoded A. nicotianae NCIMB 41126 α-H-α-amino acid amide racemase activity. The experiment is described as follows: Confirmation of potential positive clones of the A. nicotianae NCIMB 41126 gene library. The experiment is classed as cell-based, Arthrobacter nicotianae NCIMB 41126. The settings on record: 70 mM substrate, 10 μM pyridoxal-5-phosphate, 20 h at 30° C. The method, then: Of all 32 potential positive clones identified in the screening, material from the masterplates was used to inoculate 3 ml of liquid screening medium containing 50 mg/l kanamycin. After growth for 2 days at 30° C., cells were collected by centrifuging 2 ml of these cell cultures. Then the cell pellets were washed four times in 25 mM Tris-HCl buffer, pH 7.5. Subsequently, the cell pellets were resuspended in 100 μl substrate solution containing 70 mM of D-phenylalanine amide, or D-leucine amide, or D-valine amide in 50 mM Tris-HCl, pH 7.5 and 1 mM MnCl2. After incubation for 20 h at 30° C., the reactions were stopped by the addition of 100 μl of 0.15 M HCl, after which the reaction mixtures were analyzed by the HPLC method described in Example 1.
Confirmation of both potential positive clones was done according to the protocol given in Example 3, with the exception that all 3 substrate solutions used contained 10 μM of pyridoxal-5-phosphate.

Take `CCC[C@@H](N)C(N)=O` [D-norvaline amide]: the Rel. initial activity is 94% in experiment [1], 341% in experiment [2] and 107% in experiment [3].
As to `CC(C)[C@@H](N)C(N)=O` [D-valine amide], the “conversion of D-amide into L-acid” value in experiment [4] is listed as “significantly converted”. Further, the Rel. initial activity in experiment [3] amounted to 45%.
On to `CC[C@H](N)C(N)=O` [L-2-aminobutyric acid amide], for which the Rel. initial activity in experiment [1] stood at 203%; in experiment [2], 641%; in experiment [3], 76%.
